Results published in PMC4562762 (Drug Design, Development and Therapy, 2015).

Legend:
HIV-1 LTR = assay: Tat-induced HIV-1 LTR and proviral pNL4-3 luciferase transcription in 293T cells; assay type: cell-based; settings: 2 μM (legend: 1 μM)
[1] = Stability in mouse serum at 37°C; assay type: in vitro ADME
[2] = Stability in PBS supplemented with 10% BSA; assay type: physicochemical; settings: 37°C
CEM-T cells = assay: Cell cycle analysis of CEM-T cells; assay type: cell-based; settings: 1 μM, 24 hours
HIV-1 LTR / NF-κB = assay: Basal HIV-1 LTR and NF-κB driven luciferase transcription in 293T cells; assay type: cell-based; settings: 2 μM (legend: 1 μM)
HIV-1 gag and env mRNAs = assay: HIV-1 gag and env mRNA expression in infected CEM-T cells; assay type: cell-based; settings: CEM-T cells infected with HIV-1 Luc, 1 μM, 48 hours
[3] = tested on: HIV-1 reverse transcription; assay: Quantitative PCR for viral DNA; assay type: cell-based
in vitro [4] = settings: IC50, viability of PBMCs, trypan blue, activated PBMCs
[5] = tested on: VSVG-pseudotyped HIV-1 pNL4-3 virus expressing luciferase (HIV-1 Luc); assay: microbe, parasite or virus in culture; assay type: cell-based; settings: Human immunodeficiency virus 1, read-out: IC50, one round HIV-1 infection
in vitro [6] = settings: human
HO-1 = HO-1 mRNA expression; assay type: cell-based; settings: 1 μM, 18S RNA normalization
[7] = Stability in serum-free RPMI 1640 media; assay type: in vitro ADME; settings: serum-free RPMI 1640 medium
[8] = CEM-T cells infected with HIV-1 Luc, compared with AZT

COc1cc(/C=C/C(=O)CC(=O)/C=C/c2ccc(O)c(OC)c2)ccc1O [curcumin]
effect on transcription from proviral pNL4-3 plasmid (HIV-1 LTR): Neither curcumin nor curcumin A at 2 μM concentrations had an effect
effect on Tat-induced HIV-1 transcription (HIV-1 LTR; HIV-1 LTR luciferase + Tat vector): Neither curcumin nor curcumin A at 2 μM concentrations had an effect
half-life at 50 μM [1]: 10 h
stabilizing effect of BSA (stability in PBS with 10% BSA) [2]: No stabilization and even a slight increase in degradation
effect on cell cycle progression (CEM-T cells): no effect
effect on NF-kB driven transcription (HIV-1 LTR / NF-κB): no effect
effect on basal HIV-1 transcription (HIV-1 LTR / NF-κB; HIV-1 LTR luciferase vector): no effect
expression of HIV-1 gag and env mRNAs (HIV-1 gag and env mRNAs): significantly reduced
effect on HIV-1 reverse transcription (overall) ([3]; 2 μM): inhibited HIV-1 RT
effect on early LTR (early reverse transcription) [3, 8]: inhibited early LTR similarly or better than the established HIV-1 inhibitor, AZT
effect on late LTR formation (late reverse transcription) [3, 8]: no significant effect
IC50 (in vitro [4]): 35000 nM
IC50 [5]: 700 nM
IC50 (in vitro [6]): 1260 nM
HO-1 expression in PBMCs (HO-1): induced HO-1
HO-1 expression in CEM-T cells (HO-1; 24 hours): induced HO-1
half-life [7]: ~1 h
